Assay results published in patent EP4745130A1, “CRYSTAL FORMS OF TUBULIN-SRC DUAL-TARGETING INHIBITOR, PREPARATION METHOD THEREFOR AND USE THEREOF” (Hubei Bio-Pharmaceutical Industrial Technological Institute …, priority 2023, dated 2025).

Columns and labels:
[1] = Solid-state stability (XRPD and HPLC after open storage); type: physicochemical; conditions: for Crystal form: XRPD
Description: The purity test, dynamic solubility test, and stability test in the assay were measured using an Agilent 1260 high-performance liquid chromatograph, and the salt formation molar ratio of ions was tested by ion chromatography, and the analytical conditions are shown in Table 19 and Table 20. Table 19 High-performance liquid chromatography test conditions

[2] = Dynamic solubility experiment at 37°C (water, SGF, FaSSIF, FeSSIF); conditions: for S: solubility: solid feed 10 mg/mL; for pH: pH value of the filtrate
Description: Rotating mixing was carried out at 37°C at a solid feed concentration of 10 mg/mL (calculated as the compound of Formula I). […] After sampling at each time point, the samples were centrifuged (10000 rpm) and filtered (0.45 µm PTFE filter head), and the HPLC concentration and pH value of the filtrate were measured.
100 mg of NaCl and 50 mg of Triton X-100 were weighed into a 50 mL volumetric flask, and purified water was added to complete dissolution. 816 µL of 1 M hydrochloric acid was added thereto, and the pH was adjusted to 1.8 with 1 M hydrochloric acid or 1 M NaOH solution. Purified water was added to make up to volume.
340 mg of anhydrous NaH2PO4 and 620 mg of NaCl were weighed into a 100 mL volumetric flask. Purified water was added to complete dissolution, followed by addition of 55.44 µL of 50% NaOH solution, and the pH was adjusted to 6.5 using 1M HCl or 1M NaOH solution. Purified water was added to make up to volume. 110 mg of SIF powder was then weighed into a 50 mL volumetric flask, added with the above solution to complete dissolution and make up to volume.
0.82 mL of glacial acetic acid and 1.18 g of NaCl were added to a 100 mL volumetric flask. Purified water was added to complete dissolution, followed by addition of 528 µL of 50% NaOH solution, and the pH was adjusted to 5.0 using 1M HCl or 1M NaOH solution. Purified water was added to make up to volume. 560 mg of SIF powder was then weighed into a 50 mL volumetric flask, added with the above solution to complete dissolution and make up to volume.

[3] = Hygroscopicity test by dynamic vapor sorption (DVS); type: physicochemical; conditions: DVS, 25°C, 0%RH to 95%RH
Description: The dynamic vapor sorption (DVS) curve was collected on DVS IntrInsic from SMS (surface measurement systems). The relative humidity at 25°C was corrected using the deliquescence points of LiCl, Mg(NO3)2, and KCl. Table 18 DVS test parameters
The percentage change in sample mass was collected under constant temperature at 25°C as humidity varied from 0%RH to 95%RH.

[4] = Suspension competition test between free form crystal forms A and B; type: physicochemical; conditions: in words; at room temperature and 50°C, compared with the free form crystal form B
Text: Table 24 Suspension competition test results between free form crystal forms A and B

Purity (area%) ([1]; 25°C/60%RH/open, 1 week): 96.76 area%
Relative to initial (%) ([1]; 25°C/60%RH/open, 1 week): 99.9%
Crystal form ([1]; 25°C/60%RH/open, 1 week): Free form crystal form A
Purity (area%) ([1]; 40°C/75%RH/open, 1 week): 96.70 area%
Relative to initial (%) ([1]; 40°C/75%RH/open, 1 week): 99.8%
Crystal form ([1]; 40°C/75%RH/open, 1 week): Free form crystal form A
Purity (area%) ([1]; Initial): 96.86 area%
S: solubility ([2]; FaSSIF, 1 hour, 60 min): 720 µg/mL
S: solubility ([2]; FaSSIF, 4 hours, 240 min): 700 µg/mL
S: solubility ([2]; FaSSIF, 24 hours, 1440 min): 630 µg/mL
S: solubility ([2]; FeSSIF, 1 hour, 60 min): 3460 µg/mL
S: solubility ([2]; FeSSIF, 4 hours, 240 min): 3740 µg/mL
S: solubility ([2]; FeSSIF, 24 hours, 1440 min): 3460 µg/mL
S: solubility ([2]; H2O, 1 hour, 60 min): 60 µg/mL
S: solubility ([2]; H2O, 4 hours, 240 min): 80 µg/mL
S: solubility ([2]; H2O, 24 hours, 1440 min): 60 µg/mL
S: solubility ([2]; SGF, 1 hour, 60 min): 6710 µg/mL
S: solubility ([2]; SGF, 4 hours, 240 min): 6770 µg/mL
S: solubility ([2]; SGF, 24 hours, 1440 min): 6610 µg/mL
pH ([2]; FaSSIF, 1 hour): 6.6
pH ([2]; FaSSIF, 4 hours): 6.6
pH ([2]; FaSSIF, 24 hours): 6.6
pH ([2]; FeSSIF, 1 hour): 5.3
pH ([2]; FeSSIF, 4 hours): 5.4
pH ([2]; FeSSIF, 24 hours): 5.4
pH ([2]; H2O, 1 hour): 8.6
pH ([2]; H2O, 4 hours): 8.6
pH ([2]; H2O, 24 hours): 8.5
pH ([2]; SGF, 1 hour): 5.7
pH ([2]; SGF, 4 hours): 5.8
pH ([2]; SGF, 24 hours): 5.9
hygroscopicity [3]: almost non-hygroscopic
Compound: Cc1cc(OCCN2C[C@H]3COC[C@H]3C2)ccc1-c1ccc(CC(=O)NCc2ccccc2)nc1 [Free form crystal form A]
thermodynamic stability [4]: thermodynamically more stable crystal form
